From paper PMC10064330, “Reversible Dual-Covalent Molecular Locking of the 14-3-3/ERRγ Protein–Protein Interaction as a Molecular Glue Drug Discovery Approach” (Journal of the American Chemical Society, 2023) come the findings set out here.

Assay [1] deals with T1, 14-3-3γ (Homo sapiens, UniProt P61981).
T1 construct: made in house; host or cells: E. coli NiCo21 (DE3)
T1 sequence (P61981 1-247): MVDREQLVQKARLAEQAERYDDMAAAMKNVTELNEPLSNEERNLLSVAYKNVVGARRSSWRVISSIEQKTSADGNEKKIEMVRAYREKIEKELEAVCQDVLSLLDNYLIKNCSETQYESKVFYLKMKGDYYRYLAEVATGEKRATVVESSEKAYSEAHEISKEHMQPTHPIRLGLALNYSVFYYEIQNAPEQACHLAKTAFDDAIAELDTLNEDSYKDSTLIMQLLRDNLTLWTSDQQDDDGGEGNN
Put plainly: FA binding of client phosphopeptides to 14-3-3γ (binary complex). The settings on record: no stabilizer (DMSO); read-out: KD of binary 14-3-3γ/peptide complex.

Assay [2] deals with T2, 14-3-3γ/ERRγ complex (Homo sapiens, UniProt P61981+P62508).
T2 construct: made in house; host or cells: E. coli NiCo21 (DE3)
Put plainly: Fluorescence anisotropy (FA): 14-3-3γ titration to fluorescein-ERRγ phosphopeptide with 100 μM compound. It counts as binding. Conditions: for stabilization factor SF100, Replicate 1 (Table S2) / stabilization factor SF100, Replicate 2 (Table S2) / stabilization factor SF100, Replicate 3 (Table S2) / stabilization factor SF100, Average (Table S2): KD DMSO control / apparent KD with 100 μM compound, 24 h; for stabilization factor SF100, Average (Table S2): average of three experiments. The method, then:
The stabilization of the ERRγ/14-3-3γ complex by the molecular locks was assessed using a fluorescence anisotropy (FA) assay where 14-3-3γ was titrated into a fluorescently labeled ERRγ phosphopeptide in the absence or presence of a 100 μM molecular lock (Figure 2a,b); this compound concentration was selected based on a FA compound titration assay (Figure S1).
Experimental Section Biophysical Assays
14-3-3γ protein expression (FA, TSA, MS assays)
A pPROEX HTb expression vector encoding the human 14-3-3 protein gamma (14-3-3γ) with a N-terminal his6-tag was transformed by heat shock into NiCo21 (DE3) competent cells. Single colonies were cultured in 50 mL LB medium (100 µg/mL ampicillin). After overnight incubation at 37 °C, cultures were transferred to 2 L TB media (100 µg/mL ampicillin, 1 mM MgCl2) and incubated at 37 °C until an OD600 nm of 0.8 -1.2 was reached. Protein expression was then induced with 0.4 mM isopropyl-β-d-thiogalactoside (IPTG), and cultures were incubated overnight at 18 °C. Cells were harvested by centrifugation (8600 rpm, 20 minu tes, 4 °C) and resuspended in lysis buffer (50 mM Hepes, pH 8.0, 300 mM NaCl, 12.5 mM imidazole, 5 mM MgCl2, 2 mM βME) containing cOmplete™ EDTA-free Protease Inhibitor Cocktail tablets (1 tablet/100 ml lysate) and benzonase ( 5 µl/100 ml). After lysis using a C3 Emulsiflex-C3 homogenizer (Avestin), the cell lysate was cleared by centrifugation (20000 rpm, 30 minutes, 4 °C) and purified using Ni2+-affinity chromatography (Ni -NTA superflow cartridges, Qiagen). Typically two 5 mL columns (flow 5 mL/min) were use d for a 2 L culture in which the lysate was loaded on the column , washed with 10 CV wash buffer (50 mM Hepes, pH 8.0, 300 mM NaCl, 25 mM imidazole, 2 mM βME), and eluted in several fractions (2-4 CV) of elution buffer (50 mM Hepes, pH 8.0, 300 mM NaCl, 250 mM imidazole, 2 mM βME). Fractions containing the 14 -3-3 protein were combined and dialyzed into 25 mM HEPES pH 8.0, 100 mM NaCl, 10 mM MgCl2, 500 µM TCEP. Finally, the protein was concentrated to ∼60 mg/mL, analyzed Q-Tof LC/MS, and aliquots were flash-frozen for storage at −80 °C.
14-3-3σΔc C38N protein expression (Crystallography)
A pPROEX HTb expression vector encoding the human 14-3-3 protein sigma truncated after T231 (14-3-3σΔc), mutated C38N, and containing a N-terminal his6-tag was transformed by heat shock into NiCo21 (DE3) competent cells. Single colonies were cultured in 50 mL LB medium (100 µg/mL ampicillin). After overnight incubation at 37 °C, cultures were transferred to 2 L TB media (100 µg/mL ampicillin, 1 mM MgCl2) and incubated at 37 °C until an OD600 nm of 0.8-1.2 was reached. Protein expression was then induced with 0.4 mM isopropyl-β-d-thiogalactoside (IPTG), and cultures were incubated overnight at 18 °C. Cells were harvested by centrifugation (8600 rpm, 20 minutes, 4 °C) and resuspended in lysis buffer (50 mM Hepes, pH 8.0, 300 mM NaCl, 12.5 mM imidazole, 5 mM MgCl2, 2 mM βME) containing cOmplete™ EDTA-free Protease Inhibitor Cocktail tablets (1 tablet/ 100 ml lysate) and benzonase (5 µl/ 100 ml). After lysis using a C3 Emulsiflex-C3 homogenizer (Avestin), […]
chromatography (Ni-NTA superflow cartridges, Qiagen). Typically two 5 mL columns were used for a 2 L culture in which the lysate was loaded on the column , washed with 10 CV wash buffer (50 mM Hepes, pH 8.0, 300 mM NaCl, 25 mM imidazole, 2 mM βME), and eluted with several fractions (2 -4 CV) of elution buffer (50 mM Hepes, pH 8.0, 300 mM NaCl, 250 mM imidazole, 2 mM βME). Fractions containing the 14-3-3 protein were combined and dialyzed into 25 mM HEPES pH 8.0, 200 mM NaCl, 10 mM MgCl 2, 2 mM βME. In addition, 1 mg TEV was added for each 100 mg purified protein to remove the purification tag. The cleaved sample was then again loaded on a 10 mL Ni-NTA column to separate the cleaved product from the expression tag and residual uncleaved protein. The flowthrough was loaded on a Superdex 75 pg 16/60 size exc lusion column (GE Life Sciences) using […]
For orientation: In fluorescence polarisation assays a small probe gives low polarisation when free and higher when bound to something large.

The structures appear in SMILES notation. Square brackets hold non-standard residues; d marks the D form. Peptide text beside a SMILES is read from it. pS = N[C@@H](COP(=O)(O)O)C(=O)O

In the case of `CC(=O)N[C@@H](CCCCN)C(=O)N[C@@H](CCCNC(=N)N)C(=O)N[C@@H](CCCNC(=N)N)C(=O)N[C@@H](CCCNC(=N)N)C(=O)N[C@@H](CCCCN)C(=O)N[C@@H](COP(=O)(O)O)C(=O)N[C@@H](CS)C(=O)N[C@@H](CCC(N)=O)C(=O)N[C@@H](C)C(N)=O` [ERRγ] (Ac-KRRRK[pS]CQA-NH2; N-terminus and C-terminus assumed), the Kd in assay [1] came to 6.5 ± 0.9 µM.

Take `CN(C)CCSSCCN(C)C(=O)c1ccc(C=O)c(Br)c1` [compound 6]: in assay [2], the “stabilization factor SF100, Replicate 1 (Table S2)” value amounted to 22.3; the “stabilization factor SF100, Replicate 2 (Table S2)” value is given as 14.3; the “stabilization factor SF100, Replicate 3 (Table S2)” value came out at 16.9; the “stabilization factor SF100, Average (Table S2)” value is on record as 17.8.

As for `CN(C)CCSSCCN(C)C(=O)c1cccc(C=O)c1` [compound 8], in assay [2], the “stabilization factor SF100, Replicate 1 (Table S2)” value worked out at 25.5; the “stabilization factor SF100, Replicate 2 (Table S2)” value is 17.3; the “stabilization factor SF100, Replicate 3 (Table S2)” value is recorded as 19.0; the “stabilization factor SF100, Average (Table S2)” value stood at 20.6.

Turning to `CN(C)CCSSCCN(C)S(=O)(=O)c1ccc(C=O)cc1` [compound 7], in assay [2], the “stabilization factor SF100, Replicate 1 (Table S2)” value turned out to be 13.4; the “stabilization factor SF100, Replicate 2 (Table S2)” value was 11.4; the “stabilization factor SF100, Replicate 3 (Table S2)” value is given as 8.6; the “stabilization factor SF100, Average (Table S2)” value is reported as 11.2.

On to `CN(C)CCSSCCN(C)C(=O)c1ccc(F)c(C=O)c1` [compound 9], for which the “stabilization of 14-3-3γ/ERRγ complex (SF100, fold)” value in assay [2] (100 μM compound, 24 h incubation) is reported as “least active”. Moreover, in assay [2], the “stabilization factor SF100, Replicate 1 (Table S2)” value was found to be 8.5; the “stabilization factor SF100, Replicate 2 (Table S2)” value amounted to 5.4; the “stabilization factor SF100, Replicate 3 (Table S2)” value came out at 7.9; the “stabilization factor SF100, Average (Table S2)” value was found to be 7.3.

For the compound `CN(C)CCSSCCN(C)C(=O)c1ccc(C=O)cc1` [compound 4], in assay [2], the “stabilization factor SF100, Replicate 1 (Table S2)” value came out at 13.0; the “stabilization factor SF100, Replicate 2 (Table S2)” value came out at 8.6; the “stabilization factor SF100, Replicate 3 (Table S2)” value was 9.0; the “stabilization factor SF100, Average (Table S2)” value amounted to 10.2.
